Test results as given in patent US12577206B2 (BRISTOL-MYERS SQUIBB COMPANY, priority 2020, dated 2026).
pEC50: −log10 of the molar value.

Columns and labels:
[1] = target: T1, human FPR2 (Homo sapiens, UniProt P25090); test: FPR2 cyclic adenosine monophosphate (cAMP) assay; assay type: cell-based; conditions: CHO cells overexpressing human FPR2; forskolin 5 μM; inhibition of cAMP production; HTRF; read-out: hFPR2 cAMP2 EC50
T1 sequence (P25090 1-351): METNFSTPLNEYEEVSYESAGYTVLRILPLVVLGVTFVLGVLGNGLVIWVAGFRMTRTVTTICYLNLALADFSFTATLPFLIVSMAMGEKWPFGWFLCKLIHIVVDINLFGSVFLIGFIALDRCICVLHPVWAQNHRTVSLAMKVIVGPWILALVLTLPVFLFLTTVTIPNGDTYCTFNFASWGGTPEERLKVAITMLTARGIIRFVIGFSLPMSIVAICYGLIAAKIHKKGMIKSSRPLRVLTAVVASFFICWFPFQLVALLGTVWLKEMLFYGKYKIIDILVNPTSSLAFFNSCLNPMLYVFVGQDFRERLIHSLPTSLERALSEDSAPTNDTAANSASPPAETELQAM
How it was run: (§1)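 CHO cells overexpressing human FPR1 (4,000/well) or FPR2 (2,000/well) were incubated 30 min at room temperature with compound (0.020 nM to 100 μM, 1% DMSO), IBMX 200 μM, and forskolin at 10 μM (FPR1) or 5 μM (FPR2), all final. HTRF cAMP read-out; inhibition fitted by 4-parameter logistic equation.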

[2] = target: T2, human FPR1 (Homo sapiens, UniProt P21462); test: FPR1 cyclic adenosine monophosphate (cAMP) assay; assay type: cell-based; conditions: CHO cells overexpressing human FPR1; forskolin 10 μM; inhibition of cAMP production; HTRF; read-out: hFPR1 cAMP2 EC50
T2 sequence (P21462 1-350): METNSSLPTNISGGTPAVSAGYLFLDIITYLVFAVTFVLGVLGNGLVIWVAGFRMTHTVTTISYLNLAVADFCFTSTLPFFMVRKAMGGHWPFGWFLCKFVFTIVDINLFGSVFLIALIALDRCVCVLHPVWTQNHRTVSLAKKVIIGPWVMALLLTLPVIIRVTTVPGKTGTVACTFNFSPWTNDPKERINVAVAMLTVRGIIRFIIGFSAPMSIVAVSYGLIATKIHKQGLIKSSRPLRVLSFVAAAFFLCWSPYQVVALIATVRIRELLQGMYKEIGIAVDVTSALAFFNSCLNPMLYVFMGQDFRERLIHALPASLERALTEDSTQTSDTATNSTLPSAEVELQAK
How it was run: as §1

Row | SMILES | pEC50 [1] | pEC50 [2]
1 | COc1cc(F)c(-c2c(NC(=O)c3ccc(OC(F)F)cc3)c(=O)n(-c3nc(N4CCN(C)C(=O)C4)ccc3C(F)(F)F)n2C)c(F)c1 [Example 220, N-[5-(2,6-difluoro-4-methoxyphenyl)-1-methyl-2-[6-(4-methyl-3-oxopiperazin-1-yl)-3-(trifluoromethyl)pyridin-2-yl]-3-oxo-2,3-dihydro-1H-pyrazol-4-yl]-4-(difluoromethoxy)benzamide] | 8.70 | 6.25
2 | COc1ccc(-c2c(NC(=O)c3ccc(OC(F)F)cc3)c(=O)n(-c3ncccc3C(F)(F)F)n2C)cc1Cl [Example 221, N-(5-(3-chloro-4-methoxyphenyl)-1-methyl-3-oxo-2-(3-(trifluoromethyl)pyridin-2-yl)-2,3-dihydro-1H-pyrazol-4-yl)-4-(difluoromethoxy)benzamide] | 6.85 | < 5.30
3 | COc1cc(F)c(-c2c(NC(=O)c3ccc(OC(F)F)cc3)c(=O)n(-c3nc(Cl)ccc3C(F)(F)F)n2C)c(F)c1 [Example 222, N-{2-[6-chloro-3-(trifluoromethyl)pyridin-2-yl]-5-(2,6-difluoro-4-methoxyphenyl)-1-methyl-3-oxo-2,3-dihydro-1H-pyrazol-4-yl}-4-(difluoromethoxy)benzamide] | 8.30 | < 5.00
4 | COc1cc(F)c(-c2c(NC(=O)c3ccc(OC(F)F)cc3)c(=O)n(-c3nccc(N4CCN(C)CC4)c3C(F)(F)F)n2C)c(F)c1 [Example 224, N-[5-(2,6-difluoro-4-methoxyphenyl)-1-methyl-2-[4-(4-methylpiperazin-1-yl)-3-(trifluoromethyl)pyridin-2-yl]-3-oxo-2,3-dihydro-1H-pyrazol-4-yl]-4-(difluoromethoxy)benzamide] | 7.82 | < 5.30
5 | COc1cc(O)c(-c2c(NC(=O)c3ccc(OC(F)F)cc3)c(=O)n(-c3nc(NCCO)ccc3C(F)(F)F)n2C)c(F)c1 [Example 230, 4-(difluoromethoxy)-N-[5-(2-fluoro-6-hydroxy-4-methoxyphenyl)-2-{6-[(2-hydroxyethyl)amino]-3-(trifluoromethyl)pyridin-2-yl}-1-methyl-3-oxo-2,3-dihydro-1H-pyrazol-4-yl]benzamide] | 8.00 | < 5.00
6 | COc1cc(F)c(-c2c(NC(=O)c3ccc(OC(F)F)cc3)c(=O)n(-c3nc(NC4(CO)CC4)ccc3C(F)(F)F)n2C)c(F)c1 [Example 231, N-[5-(2,6-difluoro-4-methoxyphenyl)-2-(6-{[1-(hydroxymethyl)cyclopropyl]amino}-3-(trifluoromethyl)pyridin-2-yl)-1-methyl-3-oxo-2,3-dihydro-1H-pyrazol-4-yl]-4-(difluoromethoxy)benzamide] | 8.30 | < 5.00
7 | CNC(=O)[C@H](C)Nc1ccc(C(F)(F)F)c(-n2c(=O)c(NC(=O)c3ccc(OC(F)F)cc3)c(-c3c(F)cc(OC)cc3F)n2C)n1 [Example 232, N-[5-(2,6-difluoro-4-methoxyphenyl)-1-methyl-2-(6-{[(1S)-1-(methylcarbamoyl)ethyl]amino}-3-(trifluoromethyl)pyridin-2-yl)-3-oxo-2,3-dihydro-1H-pyrazol-4-yl]-4-(difluoromethoxy)benzamide] | 8.30 | < 5.00
8 | CNc1ccc(C(F)(F)F)c(-n2c(=O)c(NC(=O)c3ccc(OC(F)F)cc3)c(-c3c(O)cc(OC)cc3F)n2C)n1 [Example 233, 4-(difluoromethoxy)-N-[5-(2-fluoro-6-hydroxy-4-methoxyphenyl)-1-methyl-2-[6-(methylamino)-3-(trifluoromethyl)pyridin-2-yl]-3-oxo-2,3-dihydro-1H-pyrazol-4-yl]benzamide] | 8.10 | < 5.00

The next lines start with the values.

Row | pEC50 [1] | pEC50 [2] | SMILES
9 | 8.30 | < 5.00 | CNc1ccc(Cl)nc1-n1c(=O)c(NC(=O)c2ccc(OC(F)F)cc2)c(-c2c(F)cc(OC)cc2F)n1C [Example 215, N-{2-[6-chloro-3-(methylamino)pyridin-2-yl]-5-(2,6-difluoro-4-methoxyphenyl)-1-methyl-3-oxo-2,3-dihydro-1H-pyrazol-4-yl}-4-(difluoromethoxy)benzamide]
10 | 8.22 | < 5.00 | COc1cc(F)c(-c2c(NC(=O)c3ccc(OC(F)F)cc3)c(=O)n(-c3nc(N4CCC[C@H]4C(N)=O)ccc3C(F)(F)F)n2C)c(F)c1 [Example 216, (2S)-1-{6-[3-(2,6-difluoro-4-methoxyphenyl)-4-[4-(difluoromethoxy)benzamido]-2-methyl-5-oxo-2,5-dihydro-1H-pyrazol-1-yl]-5-(trifluoromethyl)pyridin-2-yl}pyrrolidine-2-carboxamide]
11 | 8.22 | < 5.00 | COc1cc(F)c(-c2c(NC(=O)c3ccc(OC(F)F)cc3)c(=O)n(-c3nc(Cl)ccc3N3CCN(C)CC3)n2C)c(F)c1 [Example 217, N-{2-[6-chloro-3-(4-methylpiperazin-1-yl)pyridin-2-yl]-5-(2,6-difluoro-4-methoxyphenyl)-1-methyl-3-oxo-2,3-dihydro-1H-pyrazol-4-yl}-4-(difluoromethoxy)benzamide]
12 | 7.68 | 5.82 | COc1cc(F)c(-c2c(NC(=O)c3ccc(OC(F)F)cc3)c(=O)n(-c3cccc(N4CC(C)(C)C4)n3)n2C)c(F)c1 [Example 218, N-[5-(2,6-difluoro-4-methoxyphenyl)-2-[6-(3,3-dimethylazetidin-1-yl)pyridin-2-yl]-1-methyl-3-oxo-2,3-dihydro-1H-pyrazol-4-yl]-4-(difluoromethoxy)benzamide]
13 | 8.00 | 5.49 | COc1cc(F)c(-c2c(NC(=O)c3ccc(OC(F)F)cc3)c(=O)n(-c3nc(N4CCN(C)CC4)ccc3F)n2C)c(F)c1 [Example 219, N-[5-(2,6-difluoro-4-methoxyphenyl)-2-[3-fluoro-6-(4-methylpiperazin-1-yl)pyridin-2-yl]-1-methyl-3-oxo-2,3-dihydro-1H-pyrazol-4-yl]-4-(difluoromethoxy)benzamide]
14 | 6.78 | < 5.30 | Cn1ncc2cc(-c3c(NC(=O)c4ccc(OC(F)F)cc4)c(=O)n(-c4ncccc4C(F)(F)F)n3C)ccc21 [Example 223, 4-(difluoromethoxy)-N-(1-methyl-5-(1-methyl-1H-indazol-5-yl)-3-oxo-2-(3-(trifluoromethyl)pyridin-2-yl)-2,3-dihydro-1H-pyrazol-4-yl)benzamide]
15 | 8.52 | < 5.00 | COc1cc(F)c(-c2c(NC(=O)c3ccc(OC(F)F)cc3)c(=O)n(-c3nc(NCCO)ccc3C(F)(F)F)n2C)c(F)c1 [Example 225, N-[5-(2,6-difluoro-4-methoxyphenyl)-2-{6-[(2-hydroxyethyl)amino]-3-(trifluoromethyl)pyridin-2-yl}-1-methyl-3-oxo-2,3-dihydro-1H-pyrazol-4-yl]-4-(difluoromethoxy)benzamide]
16 | 7.89 | < 5.00 | COc1cc(F)c(-c2c(NC(=O)c3ccc(OC(F)F)cc3)c(=O)n(-c3nc(NCC(N)=O)ccc3C(F)(F)F)n2C)c(F)c1 [Example 226, N-(2-{6-[(carbamoylmethyl)amino]-3-(trifluoromethyl)pyridin-2-yl}-5-(2,6-difluoro-4-methoxyphenyl)-1-methyl-3-oxo-2,3-dihydro-1H-pyrazol-4-yl)-4-(difluoromethoxy)benzamide]
17 | 8.52 | < 5.30 | CNc1ccc(C(F)(F)F)c(-n2c(=O)c(NC(=O)c3ccc(OC(F)F)cc3)c(-c3c(F)cc(OC)cc3F)n2C)n1 [Example 227, N-[5-(2,6-difluoro-4-methoxyphenyl)-1-methyl-2-[6-(methylamino)-3-(trifluoromethyl)pyridin-2-yl]-3-oxo-2,3-dihydro-1H-pyrazol-4-yl]-4-(difluoromethoxy)benzamide]
18 | 9.00 | < 5.30 | COc1cc(F)c(-c2c(NC(=O)c3ccc(OC(F)F)cc3)c(=O)n(-c3nc(Nc4cn(C)nc4C)ccc3C(F)(F)F)n2C)c(F)c1 [Example 228, N-[5-(2,6-difluoro-4-methoxyphenyl)-2-{6-[(1,3-dimethyl-1H-pyrazol-4-yl)amino]-3-(trifluoromethyl)pyridin-2-yl}-1-methyl-3-oxo-2,3-dihydro-1H-pyrazol-4-yl]-4-(difluoromethoxy)benzamide]
19 | 8.52 | < 5.00 | COc1cc(F)c(-c2c(NC(=O)c3ccc(OC(F)F)cc3)c(=O)n(-c3nc(NCC(=O)NC4CC4)ccc3C(F)(F)F)n2C)c(F)c1 [Example 229, N-[2-(6-{[(cyclopropylcarbamoyl)methy]amino}-3-(trifluoromethyl)pyridin-2-yl)-5-(2,6-difluoro-4-methoxyphenyl)-1-methyl-3-oxo-2,3-dihydro-1H-pyrazol-4-yl]-4-(difluoromethoxy)benzamide]
